The values that follow come from patent publication US20230405063A1, “USE OF PROBIOTIC COMPONENT AND PHARMACEUTICAL COMPOSITION CONTAINING PROBIOTIC COMPONENT” (CHENGDU KUACHANGAOPU MEDICAL TECHNOLOGY CO., LTD., priority 2020, published 2023).

Format in all cases: in vivo
Assay [1] deals with human liver cancer HepG2 cells. Nature of the assay: Tumor inhibition in HepG2 tumor-bearing nude mice (Example 2, Table 4). To be noted: for Tumor weight (x ± s) / Tumor inhibition rate r: dosed once, 150 μl/mouse; for Tumor weight (x ± s): 7th day after administration; for Tumor inhibition rate r: 7th day, relative to negative control; for Ratio of tumor inhibition rates, intratumoral group / intravenous group of the same drug (E7/E1, E8/E2, E10/E4): same drug and dose, local vs systemic administration. The protocol:
The tumor-bearing nude mice were widely used for drug studies on chemotherapy rather than immunotherapy in patients with solid tumors. Taking nude mice as experimental subjects, human liver cancer HepG2 cells were used as modeling cells, and 1×10^5 cells/mouse were injected into the right axilla subcutaneously for transplantation tumor modeling, and the average tumor volume of successfully modeled nude mice was 161.3 mm^3. The model animals were randomly divided into 17 groups. The drugs were administered according to the drug and dosing method in Table 4. Each group was dosed once with an injection volume of 150 μl/mouse. On the 7th day after drug administration, the animals were euthanized, and after dissection, the tumor tissue was taken out to determine the tumor weight, and the tumor inhibition rate (r) was calculated relative to the negative control group.

The next assay deals with lung tumor cells (A549). Kind of assay: Tumor inhibition in A549 tumor-bearing nude mice, co-administration (Example 5, Table 7). As to conditions: dosed once, 7th day, probiotic component = heat-inactivated Saccharomyces boulardii. An excerpt:
(§1) The method for determining the effect of combined drug administration in animal experiments was Burgi method (Burgi Y. Pharmacology; Drug actions and reactions. Cancerres. 1978, 38(2), 284-285). The Burgi method was modified by Zhengjun JIN (Zhengjun JIN, Equal probability and curve and “Q50”, Journal of the Second Shanghai Medical College; 1981, 1, 75-86) with q calculated as: q=EA+B/(EA+EB−EA×EB). In the following examples of the present invention, the combinational pharmaceutical efficacies (drug efficacies) of drug A and drug B co-administration was determined by ratio q of actual pharmaceutical efficacy (drug efficacy)/theoretical pharmaceutical efficacy (drug efficacy) according to Zhengjun JIN method, as follows.
Nude mice were used as experimental subjects, and lung tumor cells (A549) were used as modeling cells, 1×10^5 cells/mouse were injected into the right axilla subcutaneously for transplantation tumor modeling, and the average tumor volume of successfully modeled nude mice was 153.7 mm^3. The model animals were randomly divided into 18 groups, and the drugs were administered according to the drug components and administration route in Table 7. Each group was dosed once with an injection volume of […]. Wherein, the probiotic component was heat-inactivated Saccharomyces boulardii, and the administration route of group 16 was intra-tumoral injection of probiotic component followed by intra-tumoral injection of 10% arginine about 2 hours later. On the 7th day after drug administration, the animals were euthanized, and after dissection, the tumor tissue was taken out to determine the tumor weight, and the tumor inhibition rate (r) was calculated relative to the negative control group. Further, the actual efficacy/expected efficacy ratio q of a drug could also be calculated according to the therapeutic effect (tumor inhibition rate).

Assay [2] concerns mouse embryonic fibroblasts 3T3. Kind of assay: Local lesion inhibition in 3T3 fibroblast nodule model in nude mice (Example 6, Table 9). As to conditions: dosed twice at interval of 2 days, 150 μl/mouse/time, 7th day after final administration; for V (x ± s), volume of local lesions, series B / relative local lesion inhibition rate r′B: intra-nodal injection; for V (x ± s), volume of local lesions, series A / relative local lesion inhibition rate r′A: intraperitoneal injection.
Excerpt: (§2) V=0.5×a×b^2, wherein a and b represent the length and width of the local lesion, respectively; Volume of the local lesion (e.g. tumor):
(§3) Local lesion (e.g., tumor) proliferation rate (R)=TV/CV×100, wherein TV and CV are the local lesion volumes in the study group and negative control group, respectively;
as §1
Nude mice were used as experimental subjects, and mouse embryonic fibroblasts 3T3 were used as modeling cells. 2×10^4 cells/mouse were injected into the right axilla subcutaneously for transplantation nodule modeling, and the average volume of tumor-like nodules in successfully modeled nude mice was 171.5 mm^3. The model animals were randomly divided into […], and the drugs were administered according to Table 9. Each group except for groups 21-24 were administered by intraperitoneal injection, intra-nodal injection. The drugs used in groups 21-24 were a composition of non-local administration dosage form (dosage form that a probiotic component and a co-administration substance could be administered separately). The administration route of series A was: intraperitoneal injection of probiotic component+intra-nodal injection of co-administration substance; and the administration route of series B was: intraperitoneal injection of co-administration substance+intra-nodal injection of probiotic component. Each group was dosed twice at an interval of 2 days, with an injection volume of 150 μl/mouse/time. On the 7th day after the final administration, the volume (V) of local lesions comprising fibroblasts was measured, and the relative local lesion inhibition rates (r′A, r′B) were calculated for series A and series B, respectively, as compared with the negative control group. Further, the actual drug efficacy/expected efficacy ratio q could also be calculated according to the therapeutic effect (local lesion inhibition rate).

The test system of assay [3] is breast cancer 4T1 cells. Nature of the assay: Short-term tumor inhibition in 4T1 tumor-bearing BALB/c mice (Example 9, Table 14). As to conditions: dosed twice, 7th day after final administration; for tumor inhibition rate rA: series A: intravenous injection; for tumor inhibition rate rB: series B: intratumoral injection.
Excerpt: as §1
BALB/c mice were used as experimental subjects, and breast cancer 4T1 cells were used as modeling cells. 0.5×10^6 cells/mouse were injected into the right axilla subcutaneously for transplantation tumor modeling, and the average tumor volume of successfully modeled nude mice was 160.1 mm^3. The model animals were randomly divided into 21 groups, and the drugs were administered by intravenous injection (series A) and intratumoral injection (series B) according to the drugs and doses in Table 14, respectively. All the drugs administered were aqueous liquids, which were formulated according to the method of Example 1. Each group was dosed twice. On the 7th day after final administration, the animals were euthanized, and the tumor tissues were taken out after dissection to determine the tumor weight, and the tumor inhibition rates rA and rB were calculated relative to the corresponding negative control groups in series A and series B.

The test system of assay [4] is breast cancer 4T1 cells. Nature of the assay: Extra-tumoral local administration in 4T1 tumor-bearing BALB/c mice, R7d/R21d (Example 11, Table 17). To be noted: subaxillary intradermal (extra-tumoral), twice at 7-day interval, 120 μl/mouse/time; for R7 d (relative tumor proliferation rate): day 7 after last dose; for R21 d (relative tumor proliferation rate): day 21 after last dose. Here is the method:
as §2, §3
In the following examples of the present invention, the combinational pharmaceutical efficacies (drug efficacies) of drug A and drug B co-administration was determined by ratio q of actual pharmaceutical efficacy (drug efficacy)/theoretical pharmaceutical efficacy (drug efficacy) according to Zhengjun JIN method, as follows.
BALB/c mice were used as experimental subjects, and breast cancer 4T1 cells were used as modeling cells. 0.25×10^5 cells/mouse were injected into the right axilla subcutaneously for transplantation tumor modeling. On the 5th day after modeling, the test animals with visually obvious tumors were randomly divided into 12 groups, having 10 animals in each group. […] In groups 1-11, on days 7 and 21 after the last dose the tumor volume (V7d, V21d) were measured, and the relative tumor proliferation rates (R7d, R21d) were calculated relative to the negative control group on days 7 and 21 after the dose, so that the short-term therapeutic effectiveness (100%−R7d) and the medium- and long-term therapeutic effectiveness (100%−R21d) could be calculated, respectively. Further, based on the short-term therapeutic effectiveness and the medium- and long-term therapeutic effectiveness, the actual/expected ratio for short-term pharmaceutical efficacies q7d and the actual/expected ratio for medium- and long-term pharmaceutical efficacies q21d were calculated respectively.

Setting [5] is: intratumoral injection, '+' = arginine injected about 2 hours later.

`O=c1[nH]cc(F)c(=O)[nH]1` [1% 5-fluorouracil, 5-fluorouracil]: in assay [1] (intratumoral injection), the “Tumor weight (x ± s)” value stood at 0.133 ± 0.094 g and the “Tumor inhibition rate r” value is on record as 49.5%. In assay [1] (intravenous injection), the “Tumor weight (x ± s)” value was found to be 0.139 ± 0.094 g and the “Tumor inhibition rate r” value was 42.3%. In addition, in assay [1], the “Ratio of tumor inhibition rates, intratumoral group / intravenous group of the same drug (E7/E1, E8/E2, E10/E4)” value was below 200%. In the assay with lung tumor cells (A549) (setting [5]), the “Tumor inhibition rate r” value stood at 46.6% and the “Tumor weight (x ± s)” value is 0.116 ± 0.076 g. Moreover, in the assay with lung tumor cells (A549) (intravenous injection), the “Tumor inhibition rate r” value was determined as 41.3% and the “Tumor weight (x ± s)” value came out at 0.122 ± 0.065 g. Besides, in assay [2], the “V (x ± s), volume of local lesions, series B” value came out at 1.226 ± 0.217 cm^3; the “relative local lesion inhibition rate r′B” value amounted to 14.3%; the “V (x ± s), volume of local lesions, series A” value is given as 1.225 ± 0.211 cm^3; the “relative local lesion inhibition rate r′A” value came to 9.7%. Moreover, in the assay with breast cancer 4T1 cells [3], the “tumor inhibition rate rA” value was determined as 38.1% and the “tumor inhibition rate rB” value is 44.1%. In addition, in the assay with breast cancer 4T1 cells [4], the “R7 d (relative tumor proliferation rate)” value turned out to be 73% and the “R21 d (relative tumor proliferation rate)” value is given as 93%.

For `CCO` [75% ethanol, ethanol], in assay [1] (intratumoral injection), the “Tumor weight (x ± s)” value came to 0.122 ± 0.085 g and the “Tumor inhibition rate r” value is listed as 53.6%. In assay [1] (intravenous injection), the “Tumor weight (x ± s)” value stood at 0.226 ± 0.113 g and the “Tumor inhibition rate r” value was 6.1%. For the same compound, the “Ratio of tumor inhibition rates, intratumoral group / intravenous group of the same drug (E7/E1, E8/E2, E10/E4)” value in assay [1] was above 200%. Further, in the assay on lung tumor cells (A549) (setting [5]), the “Tumor inhibition rate r” value came out at 33.7% and the “Tumor weight (x ± s)” value was found to be 0.145 ± 0.084 g. Further, in the assay on lung tumor cells (A549) (intravenous injection), the “Tumor inhibition rate r” value worked out at 2.7% and the “Tumor weight (x ± s)” value amounted to 0.203 ± 0.095 g. In assay [2], the “V (x ± s), volume of local lesions, series B” value was found to be 1.078 ± 0.221 cm^3; the “relative local lesion inhibition rate r′B” value was 24.7%; the “V (x ± s), volume of local lesions, series A” value is reported as 1.300 ± 0.197 cm^3; the “relative local lesion inhibition rate r′A” value is given as 4.2%. Further, in the assay on breast cancer 4T1 cells [3], the “tumor inhibition rate rA” value came to 2.8% and the “tumor inhibition rate rB” value is on record as 21.3%. In the assay with breast cancer 4T1 cells [4], the “R7 d (relative tumor proliferation rate)” value came to 92% and the “R21 d (relative tumor proliferation rate)” value was 107%.
